Data: ChEMBL document CHEMBL1201862, “PubChem BioAssay data set” (2004)
One block for each molecule: values may come before it. Active and inactive are the calls of the source.

Key:
Hexokinase = target: T1, Hexokinase (Trypanosoma brucei, UniProt Q38C41); test: Confirmation assay for inhibitors of Trypanosoma brucei hexokinase 1-Analogue-first series. [Related pubchem assays (depositor defined):AID1430, AID1632, AID2516, AID2560, AID2579, AID2600, AID449725, AID492951]; assay type: functional
T1 sequence (Q38C41 whole entry): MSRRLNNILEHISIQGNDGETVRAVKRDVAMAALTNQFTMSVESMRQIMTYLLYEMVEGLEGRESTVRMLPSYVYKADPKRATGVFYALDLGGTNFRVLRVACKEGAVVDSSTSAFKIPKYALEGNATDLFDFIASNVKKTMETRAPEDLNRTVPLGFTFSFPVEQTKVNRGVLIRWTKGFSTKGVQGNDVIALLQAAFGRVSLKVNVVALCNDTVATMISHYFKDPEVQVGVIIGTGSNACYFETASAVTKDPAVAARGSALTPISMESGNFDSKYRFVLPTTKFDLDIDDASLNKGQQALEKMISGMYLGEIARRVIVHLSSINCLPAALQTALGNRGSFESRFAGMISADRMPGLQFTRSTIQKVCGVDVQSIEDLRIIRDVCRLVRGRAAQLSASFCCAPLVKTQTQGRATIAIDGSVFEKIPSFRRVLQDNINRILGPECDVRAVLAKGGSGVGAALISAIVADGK

[1] = target: G-protein coupled receptor 55 (Homo sapiens, UniProt Q9Y2T6); test: inhibition of LPI-stimulated GPR55 beta-arrestin translocation – imaging, U2OS, beta-arrestin-GFP, LPI agonist, primary screen (AID 2013); assay type: functional;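 note: antagonist potency measured as reduced agonist-driven arrestin aggregation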
[2] = target: T2, High affinity choline transporter 1 (Homo sapiens, UniProt Q9GZV3); test: human choline transporter blockers, potency – cell-based, 5-point CRC, membrane potential dye, dose response (AID 504840); assay type: functional
T2 sequence (Q9GZV3 whole entry): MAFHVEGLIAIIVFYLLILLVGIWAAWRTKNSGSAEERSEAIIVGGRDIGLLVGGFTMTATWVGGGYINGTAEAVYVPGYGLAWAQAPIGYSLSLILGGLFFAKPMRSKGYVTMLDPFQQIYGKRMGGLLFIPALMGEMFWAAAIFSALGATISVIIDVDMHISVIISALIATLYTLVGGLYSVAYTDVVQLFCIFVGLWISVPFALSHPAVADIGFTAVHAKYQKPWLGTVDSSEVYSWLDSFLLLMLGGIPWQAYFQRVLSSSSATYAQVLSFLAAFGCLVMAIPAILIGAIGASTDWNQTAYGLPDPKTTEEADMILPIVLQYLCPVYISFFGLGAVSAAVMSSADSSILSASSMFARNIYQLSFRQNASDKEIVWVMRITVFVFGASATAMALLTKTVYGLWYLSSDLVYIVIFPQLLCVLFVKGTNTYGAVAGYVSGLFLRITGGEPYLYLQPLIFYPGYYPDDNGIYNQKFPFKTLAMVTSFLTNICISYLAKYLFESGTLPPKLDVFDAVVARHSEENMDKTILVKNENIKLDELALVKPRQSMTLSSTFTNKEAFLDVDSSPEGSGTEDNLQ

[3] = target: T3, E3 ubiquitin-protein ligase XIAP (Homo sapiens, UniProt P98170); test: Counter Screen using XIAP-Bir3 for Chemical Antagonists of Bir1/2 domains of IAP-family anti-apoptotic proteins. [Related pubchem assays (depositor defined):AID1018, AID1449, AID1514, AID1638, AID1749, AID1750, AID488957, AID488963]
[4] = target: T3, E3 ubiquitin-protein ligase XIAP; test: small molecules displacing peptide from XIAP – biochemical, IAP family, fluorescence polarization (AID 1018); assay type: functional
[5] = target: T4, Rac GTPase-activating protein 1 (Homo sapiens, UniProt Q9H0H5); test: blockers of MgcRacGAP-driven Rac1 GTP hydrolysis – biochemical, ADP Hunter fluorescence, primary and confirmatory, confirmation (AID 624330); assay type: functional
T4 sequence (Q9H0H5 whole entry): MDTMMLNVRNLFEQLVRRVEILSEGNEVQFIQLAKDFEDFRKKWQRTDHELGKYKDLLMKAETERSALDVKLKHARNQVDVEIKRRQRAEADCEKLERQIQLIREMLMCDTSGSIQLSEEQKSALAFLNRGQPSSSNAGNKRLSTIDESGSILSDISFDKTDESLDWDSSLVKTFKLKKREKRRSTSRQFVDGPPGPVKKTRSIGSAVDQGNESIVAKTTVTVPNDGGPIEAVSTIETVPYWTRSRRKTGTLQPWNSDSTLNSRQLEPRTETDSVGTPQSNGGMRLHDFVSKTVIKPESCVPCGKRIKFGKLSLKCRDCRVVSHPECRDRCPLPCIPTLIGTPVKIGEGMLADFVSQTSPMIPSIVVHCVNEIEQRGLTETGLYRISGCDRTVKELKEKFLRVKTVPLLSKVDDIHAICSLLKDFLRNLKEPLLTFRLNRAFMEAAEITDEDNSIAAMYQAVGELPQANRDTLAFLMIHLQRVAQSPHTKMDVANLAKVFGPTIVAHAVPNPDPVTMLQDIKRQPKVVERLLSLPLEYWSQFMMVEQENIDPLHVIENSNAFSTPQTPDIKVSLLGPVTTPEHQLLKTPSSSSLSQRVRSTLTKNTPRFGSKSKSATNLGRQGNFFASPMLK

[6] = target: Glucose-6-phosphate 1-dehydrogenase (Homo sapiens, UniProt P11413); test: inhibition of Homo sapiens G6PD, dose series – biochemical, fluorescence, selectivity assay for P. falciparum G6PD inhibitor project, dose response (AID 504792); assay type: functional
[7] = viability loss in HeLa cells – cytotoxicity control for MgcRacGAP inhibitor project, dose response (AID 624300); assay type: functional
[8] = target: DNA dC->dU-editing enzyme APOBEC-3A (Homo sapiens, UniProt P31941); test: A3A deaminase inhibition for selectivity – biochemical, dose response (AID 504722); assay type: functional
[9] = target: DNA dC->dU-editing enzyme APOBEC-3G (Homo sapiens, UniProt Q9HC16); test: Dose Response confirmation of small molecule APOBEC3G DNA Deaminase Inhibitors via a fluorescence-based single-stranded DNA deaminase assay. [Related pubchem assays (depositor defined):AID493012, AID493028]; assay type: functional
[10] = target: Eukaryotic translation initiation factor 4E (Mus musculus, UniProt P63073); test: blockers of eIF4G binding by eIF4E – biochemical, TR-FRET, dose response (AID 855); assay type: functional;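 note: potency for disrupting eIF4E binding to eIF4GI seen as loss of FRET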
Leucine aminopeptidase = target: T5, Leucine aminopeptidase (Plasmodium falciparum 3D7, UniProt Q8IL11); test: P. falciparum M17LAP inhibitors, primary screen, biochemical, fluorogenic H-Leu-NHMec substrate, 1536-well (AID 1619); assay type: functional
T5 sequence (Q8IL11 whole entry): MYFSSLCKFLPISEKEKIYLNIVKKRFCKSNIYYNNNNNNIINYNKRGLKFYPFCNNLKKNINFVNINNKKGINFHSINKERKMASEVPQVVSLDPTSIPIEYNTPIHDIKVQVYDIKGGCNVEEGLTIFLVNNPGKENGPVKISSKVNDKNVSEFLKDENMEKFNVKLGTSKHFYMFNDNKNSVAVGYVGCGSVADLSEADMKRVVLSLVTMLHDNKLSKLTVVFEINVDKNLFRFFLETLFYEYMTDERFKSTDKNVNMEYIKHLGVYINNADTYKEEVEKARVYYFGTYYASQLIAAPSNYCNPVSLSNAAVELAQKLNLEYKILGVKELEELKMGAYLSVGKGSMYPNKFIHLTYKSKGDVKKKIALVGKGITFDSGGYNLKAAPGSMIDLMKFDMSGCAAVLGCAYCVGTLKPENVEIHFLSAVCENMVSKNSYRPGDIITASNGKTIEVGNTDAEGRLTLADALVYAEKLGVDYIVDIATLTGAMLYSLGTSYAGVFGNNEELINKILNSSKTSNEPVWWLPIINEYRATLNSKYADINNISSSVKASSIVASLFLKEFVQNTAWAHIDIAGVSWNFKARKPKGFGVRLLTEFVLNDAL

[11] = target: T6, RNA-binding protein pos-1 (Caenorhabditis elegans, UniProt G5EF15); test: disruptors of C. elegans POS-1 RNA interaction – biochemical, fluorescence polarization, dose response (AID 1964);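 note: purified POS-1 fused to maltose binding protein made in E. coli; potency of compounds blocking POS-1 binding to fluorescent RNA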
T6 sequence (G5EF15 whole entry): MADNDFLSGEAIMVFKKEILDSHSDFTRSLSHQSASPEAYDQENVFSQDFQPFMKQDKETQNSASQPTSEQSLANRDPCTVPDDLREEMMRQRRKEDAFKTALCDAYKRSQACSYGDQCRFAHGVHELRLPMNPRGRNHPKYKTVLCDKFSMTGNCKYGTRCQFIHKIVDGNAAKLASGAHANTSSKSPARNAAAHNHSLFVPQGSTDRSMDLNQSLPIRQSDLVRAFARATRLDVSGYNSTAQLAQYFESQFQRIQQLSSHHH

[12] = target: T7, Zinc finger protein mex-5 (Caenorhabditis elegans, UniProt Q9XUB2); test: potency of MEX-5 RNA-binding blockers – biochemical, C. elegans, fluorescence polarization, dose response (AID 1960)
T7 sequence (Q9XUB2 whole entry): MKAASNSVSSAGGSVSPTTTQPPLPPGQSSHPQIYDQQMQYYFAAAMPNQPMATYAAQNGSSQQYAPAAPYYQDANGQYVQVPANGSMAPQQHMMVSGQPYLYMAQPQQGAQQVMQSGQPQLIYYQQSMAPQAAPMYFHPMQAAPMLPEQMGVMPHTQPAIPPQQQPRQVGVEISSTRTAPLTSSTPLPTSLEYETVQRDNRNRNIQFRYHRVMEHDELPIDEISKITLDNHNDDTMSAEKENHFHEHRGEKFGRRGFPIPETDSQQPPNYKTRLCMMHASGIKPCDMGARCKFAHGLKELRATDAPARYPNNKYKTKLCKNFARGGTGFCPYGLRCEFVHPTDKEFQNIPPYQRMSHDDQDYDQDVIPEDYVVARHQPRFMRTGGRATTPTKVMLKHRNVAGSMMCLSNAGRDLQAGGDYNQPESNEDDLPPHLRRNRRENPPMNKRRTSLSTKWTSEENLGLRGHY

SUMO-activating enzyme [13] = target: T8, SUMO-activating enzyme (Homo sapiens, UniProt Q9UBT2); test: blockers of UBC9-mediated SUMO conjugation – biochemical, AlphaScreen, SUMOylation inhibitor project, confirmation (AID 2018); assay type: functional
Caspase-6 = target: T9, Caspase-6 (Homo sapiens, UniProt P55212); test: inhibition of CASP6 peptide cleavage – biochemical, VEID-R110 fluorescence, cherry-pick, dose response (AID 720632)
T9 sequence (P55212 whole entry): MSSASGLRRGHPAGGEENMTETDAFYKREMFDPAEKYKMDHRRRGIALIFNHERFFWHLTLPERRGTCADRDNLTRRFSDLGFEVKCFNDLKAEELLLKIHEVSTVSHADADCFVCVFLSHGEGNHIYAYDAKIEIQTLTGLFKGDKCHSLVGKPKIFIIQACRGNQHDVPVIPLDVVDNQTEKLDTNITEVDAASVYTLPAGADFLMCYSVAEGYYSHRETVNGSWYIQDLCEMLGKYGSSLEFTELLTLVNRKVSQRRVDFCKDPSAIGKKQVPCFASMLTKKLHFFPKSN

SUMO-activating enzyme [14] = target: T8, SUMO-activating enzyme; test: blockers of SAE1/SAE2–UBC9 SUMO transfer – biochemical, HTRF, uHTS, primary screen (AID 2006); assay type: protein-complex assay

T3 sequence (P98170 whole entry): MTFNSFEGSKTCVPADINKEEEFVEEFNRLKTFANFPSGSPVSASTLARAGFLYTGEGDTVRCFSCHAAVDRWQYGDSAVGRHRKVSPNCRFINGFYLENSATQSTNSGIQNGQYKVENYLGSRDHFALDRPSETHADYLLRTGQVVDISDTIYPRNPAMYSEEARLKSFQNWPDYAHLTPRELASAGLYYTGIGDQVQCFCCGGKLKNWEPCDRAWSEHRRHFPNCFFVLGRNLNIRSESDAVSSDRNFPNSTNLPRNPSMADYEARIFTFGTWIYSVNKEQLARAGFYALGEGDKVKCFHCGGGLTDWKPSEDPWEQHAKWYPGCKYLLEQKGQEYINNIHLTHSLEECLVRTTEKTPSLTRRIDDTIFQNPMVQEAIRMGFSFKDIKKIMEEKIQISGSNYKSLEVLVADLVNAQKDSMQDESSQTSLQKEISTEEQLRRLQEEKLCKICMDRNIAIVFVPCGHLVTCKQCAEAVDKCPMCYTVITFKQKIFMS
Chain of DNA dC->dU-editing enzyme APOBEC-3G (Q9HC16 whole entry): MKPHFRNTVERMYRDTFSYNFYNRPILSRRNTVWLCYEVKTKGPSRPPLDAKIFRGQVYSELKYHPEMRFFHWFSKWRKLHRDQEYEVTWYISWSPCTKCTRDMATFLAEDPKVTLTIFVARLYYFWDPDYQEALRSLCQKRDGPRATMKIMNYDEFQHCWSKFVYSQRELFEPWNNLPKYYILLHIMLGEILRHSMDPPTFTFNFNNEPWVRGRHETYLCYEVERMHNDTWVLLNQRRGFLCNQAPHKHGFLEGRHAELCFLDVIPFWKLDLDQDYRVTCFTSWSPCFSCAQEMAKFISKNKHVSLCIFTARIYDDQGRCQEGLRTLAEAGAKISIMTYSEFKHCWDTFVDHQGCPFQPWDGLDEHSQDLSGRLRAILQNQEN
Chain of DNA dC->dU-editing enzyme APOBEC-3A (P31941 whole entry): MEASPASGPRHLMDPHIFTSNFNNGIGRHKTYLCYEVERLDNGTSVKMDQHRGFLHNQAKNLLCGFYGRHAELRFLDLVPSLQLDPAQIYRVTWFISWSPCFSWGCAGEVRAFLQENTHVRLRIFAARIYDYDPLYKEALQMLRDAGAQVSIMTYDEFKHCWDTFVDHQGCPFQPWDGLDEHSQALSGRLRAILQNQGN
T8 sequence (Q9UBE0 whole entry): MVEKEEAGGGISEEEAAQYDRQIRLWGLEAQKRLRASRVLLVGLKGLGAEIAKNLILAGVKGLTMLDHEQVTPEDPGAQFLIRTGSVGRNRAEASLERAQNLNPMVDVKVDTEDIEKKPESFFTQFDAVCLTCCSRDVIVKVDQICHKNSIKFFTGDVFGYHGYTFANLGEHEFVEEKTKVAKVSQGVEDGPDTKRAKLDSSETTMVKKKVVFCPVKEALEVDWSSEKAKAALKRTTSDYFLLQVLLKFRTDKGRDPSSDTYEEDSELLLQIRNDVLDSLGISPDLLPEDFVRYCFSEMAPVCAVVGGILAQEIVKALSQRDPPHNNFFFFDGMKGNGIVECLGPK
T8 sequence (Q9UBT2 whole entry): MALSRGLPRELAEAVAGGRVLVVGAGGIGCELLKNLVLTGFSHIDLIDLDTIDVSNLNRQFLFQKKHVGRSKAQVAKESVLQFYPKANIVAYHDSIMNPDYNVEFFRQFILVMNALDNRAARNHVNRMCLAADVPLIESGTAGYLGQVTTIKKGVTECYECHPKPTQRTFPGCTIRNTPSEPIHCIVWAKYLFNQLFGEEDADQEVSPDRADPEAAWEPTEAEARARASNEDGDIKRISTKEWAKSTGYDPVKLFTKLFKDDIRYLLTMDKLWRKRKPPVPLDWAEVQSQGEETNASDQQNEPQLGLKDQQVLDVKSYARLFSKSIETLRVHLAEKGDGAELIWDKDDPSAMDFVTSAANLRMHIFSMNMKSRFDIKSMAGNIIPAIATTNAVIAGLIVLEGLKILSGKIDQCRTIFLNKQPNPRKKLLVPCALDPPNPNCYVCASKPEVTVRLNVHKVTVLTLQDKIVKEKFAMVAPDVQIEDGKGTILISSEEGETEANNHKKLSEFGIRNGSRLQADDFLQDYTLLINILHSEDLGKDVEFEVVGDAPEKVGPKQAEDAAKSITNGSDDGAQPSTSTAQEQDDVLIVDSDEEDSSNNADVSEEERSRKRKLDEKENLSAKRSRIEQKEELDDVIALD
Chain of G-protein coupled receptor 55 (Q9Y2T6 whole entry): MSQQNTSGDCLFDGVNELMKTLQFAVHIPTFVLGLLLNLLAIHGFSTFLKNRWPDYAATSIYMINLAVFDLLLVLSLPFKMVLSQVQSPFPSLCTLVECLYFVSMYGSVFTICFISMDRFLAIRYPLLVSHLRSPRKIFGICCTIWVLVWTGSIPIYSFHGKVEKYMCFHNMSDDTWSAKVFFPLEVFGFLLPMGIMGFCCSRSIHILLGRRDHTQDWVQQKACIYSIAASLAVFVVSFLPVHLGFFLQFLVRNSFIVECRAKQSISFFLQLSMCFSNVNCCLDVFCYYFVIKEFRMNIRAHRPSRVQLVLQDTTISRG
Chain of Eukaryotic translation initiation factor 4E (P63073 whole entry): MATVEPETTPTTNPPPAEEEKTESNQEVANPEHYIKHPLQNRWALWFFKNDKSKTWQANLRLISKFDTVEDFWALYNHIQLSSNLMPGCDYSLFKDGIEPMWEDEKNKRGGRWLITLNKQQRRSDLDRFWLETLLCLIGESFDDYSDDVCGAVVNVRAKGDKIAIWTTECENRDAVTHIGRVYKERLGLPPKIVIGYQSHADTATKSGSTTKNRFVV
Chain of Glucose-6-phosphate 1-dehydrogenase (P11413 whole entry): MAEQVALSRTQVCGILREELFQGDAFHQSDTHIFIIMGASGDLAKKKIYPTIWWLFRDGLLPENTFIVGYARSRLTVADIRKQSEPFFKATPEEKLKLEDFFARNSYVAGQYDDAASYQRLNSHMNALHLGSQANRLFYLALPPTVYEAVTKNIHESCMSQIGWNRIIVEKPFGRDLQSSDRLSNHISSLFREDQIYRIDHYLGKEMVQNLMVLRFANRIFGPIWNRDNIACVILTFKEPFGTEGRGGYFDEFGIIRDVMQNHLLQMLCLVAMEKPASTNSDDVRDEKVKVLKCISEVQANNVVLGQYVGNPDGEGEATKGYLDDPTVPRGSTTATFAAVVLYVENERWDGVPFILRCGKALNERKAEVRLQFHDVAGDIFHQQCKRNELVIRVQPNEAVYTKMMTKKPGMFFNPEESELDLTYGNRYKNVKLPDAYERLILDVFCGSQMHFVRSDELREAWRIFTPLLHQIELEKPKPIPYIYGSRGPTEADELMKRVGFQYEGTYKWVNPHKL

Compound: O=c1c(O)c(-c2ccc(O)c(O)c2)oc2cc(O)cc(O)c12 [QUERCETIN]
IC50 (Hexokinase): 22.4 µM (active)

Compound: CCc1nnc(NS(=O)(=O)c2ccc(NC(=O)/C=C/c3ccccc3Cl)cc2)s1
IC50 [1]: 1.99 µM (active)
IC50 [2]: 13.8 µM (active)

IC50 [3]: > 100 µM (inactive)
IC50 [4]: > 100 µM (not active)
Compound: COc1nc(NS(=O)(=O)c2ccc(C)cc2)nc(C)c1Cl

Compound: Cc1ccc(-n2sc3cc(F)ccc3c2=O)c(C)c1
IC50 [5]: 35.8 µM (active)
IC50 [6]: 9.17 µM (active)
CC50 [7]: 72.5 µM (active)
IC50 (Hexokinase): 4.77 µM (active)

IC50 [1]: 4.89 µM (active)
Compound: O=C(Nc1ccccc1N1CCOCC1)c1cc(-c2ccncc2)nc2ccccc12

Compound: COCc1cc(C)c(C#N)c(S)n1
IC50 [8]: > 100 µM (inactive)
IC50 [9]: 14.1 µM (active)

IC50 [3]: > 100 µM (inactive)
IC50 [4]: > 100 µM (not active)
Compound: O=C(O)CCN1CCc2ccccc21

Compound: CC(/C=N/n1c(S)nnc1-c1cccnc1)=C\c1ccco1
IC50 [8]: > 100 µM (inactive)
IC50 [9]: 1.93 µM (active)

IC50 [10]: 50 µM (inactive)
IC50 (Leucine aminopeptidase): 12.7 µM (active)
EC50 [11]: > 300 µM (not active)
EC50 [12]: 111 µM (active)
IC50 (SUMO-activating enzyme [13]): 6.16 µM (active)
AC50 (Caspase-6): 5.03 µM (active)
IC50 (SUMO-activating enzyme [14]): 29 µM (active)
Compound: Cc1cc(/C=N/Nc2ccc([N+](=O)[O-])cn2)c(C)n1-c1ccc(C(=O)O)cc1
